Reference: ChEMBL document CHEMBL4627246, “Pyroglutamide-Based P2X7 Receptor Antagonists Targeting Inflammatory Bowel Disease” (J Med Chem, 2020)

Legend:
Type in all cases: cell-based
SF-539 = test: Cytotoxicity against human SF539 cells assessed as effect on cell growth at 10 uM incubated for 48 hrs by sulforhodamine B assay; conditions: sf-539, 48 h
NCI-H23 = test: Cytotoxicity against human NCI-H23 cells assessed as effect on cell growth at 10 uM incubated for 48 hrs by sulforhodamine B assay; conditions: nci-h23, 48 h
SR = test: Cytotoxicity against human SR cells assessed as effect on cell growth at 10 uM incubated for 48 hrs by sulforhodamine B assay
MDA-MB-231 = test: Cytotoxicity against human MDA-MB-231 cells assessed as effect on cell growth at 10 uM incubated for 48 hrs by sulforhodamine B assay; conditions: mda-mb-231, 48 h
786-0 = test: Cytotoxicity against human 786-0 cells assessed as effect on cell growth at 10 uM incubated for 48 hrs by sulforhodamine B assay; conditions: 786-0, 48 h
A549 = test: Cytotoxicity against human A549/ATCC cells assessed as effect on cell growth at 10 uM incubated for 48 hrs by sulforhodamine B assay; conditions: a549, 48 h
SK-MEL-28 = test: Cytotoxicity against human SK-MEL-28 cells assessed as effect on cell growth at 10 uM incubated for 48 hrs by sulforhodamine B assay; conditions: sk-mel-28, 48 h
SF-268 = test: Cytotoxicity against human SF268 cells assessed as effect on cell growth at 10 uM incubated for 48 hrs by sulforhodamine B assay; conditions: sf-268, 48 h
BT-549 = test: Cytotoxicity against human BT549 cells assessed as effect on cell growth at 10 uM incubated for 48 hrs by sulforhodamine B assay; conditions: bt-549, 48 h
HCC 2998 = test: Cytotoxicity against human HCC2998 cells assessed as effect on cell growth at 10 uM incubated for 48 hrs by sulforhodamine B assay; conditions: hcc 2998, 48 h
SW-620 = test: Cytotoxicity against human SW620 cells assessed as effect on cell growth at 10 uM incubated for 48 hrs by sulforhodamine B assay; conditions: sw-620, 48 h
HOP-92 = test: Cytotoxicity against human HOP92 cells assessed as effect on cell growth at 10 uM incubated for 48 hrs by sulforhodamine B assay; conditions: hop-92, 48 h
SN12C = test: Cytotoxicity against human SN12C cells assessed as effect on cell growth at 10 uM incubated for 48 hrs by sulforhodamine B assay
NCI-H322M = test: Cytotoxicity against human NCI-H322M cells assessed as effect on cell growth at 10 uM incubated for 48 hrs by sulforhodamine B assay
OVCAR-5 = test: Cytotoxicity against human OVCAR5 cells assessed as effect on cell growth at 10 uM incubated for 48 hrs by sulforhodamine B assay; conditions: ovcar-5, 48 h
NCI-H226 = test: Cytotoxicity against human NCI-H226 cells assessed as effect on cell growth at 10 uM incubated for 48 hrs by sulforhodamine B assay; conditions: nci-h226, 48 h
HT-29 = test: Cytotoxicity against human HT-29 cells assessed as effect on cell growth at 10 uM incubated for 48 hrs by sulforhodamine B assay; conditions: ht-29, 48 h
OVCAR-8 = test: Cytotoxicity against human OVCAR8 cells assessed as effect on cell growth at 10 uM incubated for 48 hrs by sulforhodamine B assay; conditions: ovcar-8, 48 h
COLO 205 = test: Cytotoxicity against human COLO205 cells assessed as effect on cell growth at 10 uM incubated for 48 hrs by sulforhodamine B assay; conditions: colo 205, 48 h
A498 = test: Cytotoxicity against human A498 cells assessed as effect on cell growth at 10 uM incubated for 48 hrs by sulforhodamine B assay; conditions: a498, 48 h

Measured: Activity

COc1ccc(CN2C(=O)CC[C@H]2C(=O)NCCc2ccccc2)cc1
Non-Toxic: all assays above

Cc1ccc(NC(=O)[C@@H]2CCC(=O)N2c2ccccc2)cc1
Non-Toxic: all assays above

CN(C)/C=C1\C[C@@H](C(=O)NCc2ccc(Cl)cc2Cl)N(c2cccs2)C1=O
Non-Toxic: all assays above

O=C1N[C@H](C(=O)NCc2ccc(Cl)cc2Cl)C/C1=C/NCc1ccc(Cl)cc1Cl
Non-Toxic: all assays above

O=C(NCc1ccc(Cl)cc1Cl)[C@@H]1CCC(=O)N1C(c1ccccc1)c1ccccc1
Non-Toxic: all assays above

CN1C(=O)CC[C@H]1C(=O)NCc1cc(C(F)(F)F)ccc1Cl
Non-Toxic: all assays above

CN(C)/C=C1\C[C@H]2C(=O)N(Cc3ccccc3Cl)C(N(C)C)N2C1=O (stereo not given in full)
Non-Toxic: all assays above

COc1ccc(CNC(=O)[C@@H]2CCC(=O)N2Cc2ccc(Cl)cc2Cl)c(OC)c1
Non-Toxic: all assays above

O=C(NCc1ccccc1Cl)[C@@H]1CCC(=O)N1Cc1ccccc1Cl
Non-Toxic: all assays above
